{
  "source": "patent US20120009277A1",
  "about": "“METHOD FOR SELECTION OF NOVEL ANTI-CANCER HERBS USING CHEMINFORMATIC TOOLS” (priority 2010, published 2012)",
  "type_in_all_cases": "cell-based",
  "key": {"[1]": {"test_system": "HF2 (human fetal fibroblast)", "experiment": "MTT cytotoxicity assay on HF2 normal cells, single agents and doxorubicin combinations", "details": "doxorubicin alone, 24 hr", "procedure": "(§1) Anticancer drug resistant cancerous cell lines; A2780/cp (human ovarian carcinoma, resistant to cisplatin) NCBI C454, ACHN (human renal adenocarcinoma) NCBI C206, and normal cell line HF2 (human fetal fibroblast) NCBI C336 herein used as a cell negative control are obtained from National Cell Bank of Iran, Pasture Institute of Iran (Tehran). These cells are maintained in RPMI 1640 medium supplemented with 10% FCS in a humidified incubator (37° C. and 5% CO2).\n(§2) Cells are cultured in RPMI-1640 medium supplemented with 10% heat inactivated FCS, 2 mM glutamine, penicillin ([…]) and streptomycin (100 μg/ml) at 37° C. in an incubator containing 5% CO2.\n(§3) Harvested cells with trypsin (0.25%) are counted by Neubauer slide and then are seeded into 96-well plates (104 cell/well). […] The insoluble formazan produced is dissolved in solution containing 100 μl DMSO (Dimethyl sulfoxide) and Optical Density (absorbance) is read against blank reagent with Multiwell scanning spectrophotometer (ELISA reader, Organon Tekninka, the Netherlands) at a wavelength of 545 nm. The percentage of cytotoxicity is calculated according to following equations: […]"}, "[2]": {"test_system": "ACHN (human renal adenocarcinoma)", "experiment": "MTT cytotoxicity assay on ACHN cells, single agents and doxorubicin combinations", "details": "doxorubicin alone, 24 hr", "procedure": "as §1, §2, §3"}, "[3]": {"test_system": "A2780/cp (human ovarian carcinoma, resistant to cisplatin)", "experiment": "MTT cytotoxicity assay on A2780/cp cells, single agents and cisplatin combinations", "details": "cisplatin alone, 24 hr", "procedure": "as §1, §2, §3"}},
  "data": [
    {"smiles": "COc1cccc2c1C(=O)c1c(O)c3c(c(O)c1C2=O)C[C@@](O)(C(=O)CO)C[C@@H]3O[C@H]1C[C@H](N)[C@H](O)[C@H](C)O1", "note": "[Doxorubicin]", "values": [
      {"measurement": "IC50", "setting": "[1]", "value": 1.31, "unit": "µM"},
      {"measurement": "IC50", "setting": "[2]", "value": 3.92, "unit": "µM"}
    ]},
    {"smiles": "N.N.[Cl][Pt][Cl]", "note": "[Cisplatin]", "values": [
      {"measurement": "IC50", "setting": "[3]", "value": 42.5, "unit": "µM"}
    ]}
  ]
}
